Broadly, the EC50 is the concentration giving half of the maximal effect. As usually defined, the IC50 is the midpoint of a concentration-inhibition curve. Low values mean inhibition by little substance, high ones a need for much substance.

Test [1] relates to STAT1 (phosphorylated at Tyr701) in NCI-H1373 cells. The test is described as follows: Phospho-STAT1 (Tyr701) LANCE Ultra TR-FRET Detection Assay. The settings on record: Homo sapiens, 48 hours, induction of pSTAT1, normalized to 10 uM positive control and DMSO, 4-parameter fit, read-out: NH1373 pSTAT1 EC50. In kind it is cell-based. The method in brief: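 Endogenous STAT1 Tyr701 phosphorylation induced by compound was measured after seeding 30,000 cells/well onto compound-spotted plates and incubating 48 h at 37 °C, 5% CO2. Lysates were incubated with a sandwich antibody pair overnight at room temperature, and TR-FRET emission was read at 665 and 620 nm.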
(In general: Time-resolved FRET reads energy transfer from a long-lived donor to a nearby acceptor.)

A further test addresses T1, PARP7 (Homo sapiens, UniProt Q7Z3E1).
T1 sequence (Q7Z3E1 1-657): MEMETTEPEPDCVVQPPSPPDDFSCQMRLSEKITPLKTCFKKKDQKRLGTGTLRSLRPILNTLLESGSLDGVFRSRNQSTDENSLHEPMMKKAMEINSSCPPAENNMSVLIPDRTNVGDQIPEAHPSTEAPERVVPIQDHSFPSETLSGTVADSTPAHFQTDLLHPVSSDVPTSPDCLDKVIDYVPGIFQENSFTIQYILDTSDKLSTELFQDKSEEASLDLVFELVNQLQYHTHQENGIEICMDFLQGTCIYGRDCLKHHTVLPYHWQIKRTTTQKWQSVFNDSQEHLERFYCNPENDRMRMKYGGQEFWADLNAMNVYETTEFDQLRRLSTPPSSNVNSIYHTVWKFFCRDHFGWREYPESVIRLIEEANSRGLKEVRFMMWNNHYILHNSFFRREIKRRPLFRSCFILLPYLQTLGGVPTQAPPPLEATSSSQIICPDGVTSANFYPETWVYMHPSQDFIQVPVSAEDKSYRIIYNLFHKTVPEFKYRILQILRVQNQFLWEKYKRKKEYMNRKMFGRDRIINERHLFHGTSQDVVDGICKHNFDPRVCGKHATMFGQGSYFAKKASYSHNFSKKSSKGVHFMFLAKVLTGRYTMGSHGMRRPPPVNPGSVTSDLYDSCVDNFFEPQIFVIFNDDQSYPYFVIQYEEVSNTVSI
In words: biochemical.

A value given as a limit tells only on which side of the number the result lay.
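For IC50 in this document: MSD light signal quantifying PARP7 captured by a plate-immobilized probe, read after 1.5 h equilibration plus 1.5 h with SULFO-TAG anti-GST antibody at room temperature.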

As to `O=C(CC[C@@H](Nc1cc(C(F)(F)F)c(=O)[nH]n1)C(F)F)N1CCN(c2ncc(C(F)(F)F)cn2)CC1` [Example 40, (R)-6-((1,1-difluoro-5-oxo-5-(4-(5-(trifluoromethyl)pyrimidin-2-yl)piperazin-1-yl)pentan-2-yl)amino)-4-(trifluoromethyl)pyridazin-3(2H)-one], the EC50 in test [1] was found to be 0.063 µM. The compound also registered a concentration for half-maximal inhibition (IC50) on PARP7 of 0.000275 µM.

Consider `O=C(CC[C@@H]1COCCN1c1cc(C(F)(F)F)c(=O)[nH]n1)N1CCN(c2ncc(C(F)(F)F)cn2)CC1` [Example 42, (R)-6-(3-(3-oxo-3-(4-(5-(trifluoromethyl)pyrimidin-2-yl)piperazin-1-yl)propyl)morpholino)-4-(trifluoromethyl)pyridazin-3(2H)-one], for which, in test [1], the EC50 was found to be 0.901 µM. The same compound returned an IC50 at PARP7 of 0.000598 µM.

Consider `O=C([C@@H]1CN(c2cc(C(F)(F)F)c(=O)[nH]n2)CCO1)N1CCN(c2ncc(C(F)(F)F)cn2)CC1` [Example 43, (S)-4-(trifluoromethyl)-6-(2-(4-(5-(trifluoromethyl)pyrimidin-2-yl)piperazine-1-carbonyl)morpholino)pyridazin-3(2H)-one], for which the half-maximal effective concentration (EC50) in test [1] is not below 10 µM. In addition, the midpoint of inhibition against PARP7, the IC50, lay at 0.0201 µM.

Consider `O=C(CCCN(c1ccccc1)c1cc(C(F)(F)F)c(=O)[nH]n1)N1CCN(c2ncc(C(F)(F)F)cn2)CC1` [Example 44, 6-((4-oxo-4-(4-(5-(trifluoromethyl)pyrimidin-2-yl)piperazin-1-yl)butyl)(phenyl)amino)-4-(trifluoromethyl)pyridazin-3(2H)-one], for which the EC50 in test [1] came out at 0.0741 µM. Further, on PARP7, the IC50 stood at 0.000151 µM.

For the compound `O=C(CCC1Cc2ccccc2N1c1cc(C(F)(F)F)c(=O)[nH]n1)N1CCN(c2ncc(C(F)(F)F)cn2)CC1` (centres unmarked) [Example 47, 3-[2-[3-oxo-3-[4-[5-(trifluoromethyl)pyrimidin-2-yl]piperazin-1-yl]propyl]indolin-1-yl]-5-(trifluoromethyl)-1H-pyridazin-6-one], the concentration giving a half-maximal response (EC50) in test [1] turned out to be 0.179 µM. Also, the IC50 against PARP7 came out at 0.000232 µM.

Regarding `O=C([C@@H]1Cc2ccccc2N1c1cc(C(F)(F)F)c(=O)[nH]n1)N1CCN(c2ncc(C(F)(F)F)cn2)CC1` [Example 49, 5-(trifluoromethyl)-3-[(2S)-2-[4-[5-(trifluoromethyl)pyrimidin-2-yl]piperazine-1-carbonyl]indolin-1-yl]-1H-pyridazin-6-one], the EC50 in test [1] is 0.858 µM. In addition, the half-maximal inhibitory concentration (IC50) against PARP7 turned out to be 0.0011 µM.

As to `O=C(CC[C@@H]1Cc2ccccc2N1c1cc(C(F)(F)F)c(=O)[nH]n1)N1CCN(c2ncc(C(F)(F)F)cn2)CC1` [Example 50, 3-[(2R)-2-[3-oxo-3-[4-[5-(trifluoromethyl)pyrimidin-2-yl]piperazin-1-yl]propyl]indolin-1-yl]-5-(trifluoromethyl)-1H-pyridazin-6-one], the concentration for a half-maximal effect (EC50) in test [1] came to 0.221 µM. The compound also returned an IC50 on PARP7 of 0.000357 µM.

For the compound `[2H]C1([2H])N(C(=O)CCCNc2cc(C(F)(F)F)c(=O)[nH]n2)C([2H])([2H])C([2H])([2H])N(c2ncc(C(F)(F)F)cn2)C1([2H])[2H]` [Example 51, 3-[[4-[2,2,3,3,5,5,6,6-octadeuterio-4-[5-(trifluoromethyl)pyrimidin-2-yl]piperazin-1-yl]-4-oxo-butyl]amino]-5-(trifluoromethyl)-1H-pyridazin-6-one], the 50% effective concentration (EC50) in test [1] turned out to be 0.123 µM. This compound also returned a 50% inhibitory concentration (IC50) against PARP7 of 0.000165 µM.

Regarding `[2H]C1([2H])N(C(=O)CCCCc2cc(C(F)(F)F)c(=O)[nH]n2)C([2H])([2H])C([2H])([2H])N(c2ncc(C(F)(F)F)cn2)C1([2H])[2H]` [Example 52, 3-[5-[2,2,3,3,5,5,6,6-octadeuterio-4-[5-(trifluoromethyl)pyrimidin-2-yl]piperazin-1-yl]-5-oxo-pentyl]-5-(trifluoromethyl)-1H-pyridazin-6-one], the EC50 in test [1] amounted to 0.209 µM. The compound also returned a half-inhibitory concentration (IC50) at PARP7 of 0.000359 µM.

As to `O=C(CCCNc1cc(C(F)(F)F)c(=O)[nH]n1)N1CCN(c2ccc(C(F)(F)F)cn2)CC1` [Example 53, 3-[[4-oxo-4-[4-[5-(trifluoromethyl)-2-pyridyl]piperazin-1-yl]butyl]amino]-5-(trifluoromethyl)-1H-pyridazin-6-one], the concentration for a half-maximal effect (EC50) in test [1] came to 0.218 µM. This compound registered an IC50 at PARP7 of 0.00034 µM.

Turning to `N#Cc1ccc(N2CCN(C(=O)CCCNc3cc(C(F)(F)F)c(=O)[nH]n3)CC2)nc1` [Example 54, 6-[4-[4-[[6-oxo-5-(trifluoromethyl)-1H-pyridazin-3-yl]amino]butanoyl]piperazin-1-yl]pyridine-3-carbonitrile], the EC50 in test [1] turned out to be 0.691 µM. Besides, on PARP7, the 50% inhibitory concentration (IC50) is 0.000408 µM.

`O=C([C@@H]1CCN1c1cc(C(F)(F)F)c(=O)[nH]n1)N1CCN(c2ncc(C(F)(F)F)cn2)CC1` [Example 55, 5-(trifluoromethyl)-3-[(2S)-2-[4-[5-(trifluoromethyl)pyrimidin-2-yl]piperazine-1-carbonyl]azetidin-1-yl]-1H-pyridazin-6-one]: the EC50 in test [1] turned out to be 0.282 µM. For the same compound, at PARP7, inhibition was half-maximal at 0.000339 µM (IC50).

On to `O=C(CCCN(CC(F)F)c1cc(C(F)(F)F)c(=O)[nH]n1)N1CCN(c2ncc(C(F)(F)F)cn2)CC1` [Example 56, 3-[2,2-difluoroethyl-[4-oxo-4-[4-[5-(trifluoromethyl)pyrimidin-2-yl]piperazin-1-yl]butyl]amino]-5-(trifluoromethyl)-1H-pyridazin-6-one], for which the EC50 in test [1] was determined as 0.452 µM. The half-inhibitory concentration (IC50) at PARP7 amounted to 0.000877 µM.

With `O=C([C@@H]1Cc2ccccc2CN1c1cc(C(F)(F)F)c(=O)[nH]n1)N1CCN(c2ncc(C(F)(F)F)cn2)CC1` [Example 57, 5-(trifluoromethyl)-3-[(3S)-3-[4-[5-(trifluoromethyl)pyrimidin-2-yl]piperazine-1-carbonyl]-3,4-dihydro-1H-isoquinolin-2-yl]-1H-pyridazin-6-one], the EC50 in test [1] amounted to 1.71 µM. For the same compound, the half-inhibitory concentration (IC50) against PARP7 came out at 0.00437 µM.

As to `O=C([C@@H]1CCc2ccccc2N1c1cc(C(F)(F)F)c(=O)[nH]n1)N1CCN(c2ncc(C(F)(F)F)cn2)CC1` [Example 58, 5-(trifluoromethyl)-3-[(2S)-2-[4-[5-(trifluoromethyl)pyrimidin-2-yl]piperazine-1-carbonyl]-3,4-dihydro-2H-quinolin-1-yl]-1H-pyridazin-6-one], the half-maximal effective concentration (EC50) in test [1] is 2.11 µM. Moreover, inhibition against PARP7 was half-maximal at 0.00436 µM (IC50).

As for `O=C([C@@H]1CCC[C@H](Nc2cc(C(F)(F)F)c(=O)[nH]n2)C1)N1CCN(c2ncc(C(F)(F)F)cn2)CC1` [Example 60, 5-(trifluoromethyl)-3-[[(1S,3R)-3-[4-[5-(trifluoromethyl)pyrimidin-2-yl]piperazine-1-carbonyl]cyclohexyl]amino]-1H-pyridazin-6-one], the EC50 in test [1] was not below 10 µM. 0.00107 µM corresponded to half-maximal inhibition against PARP7 (IC50).

Take `O=C([C@H]1CCC[C@H](Nc2cc(C(F)(F)F)c(=O)[nH]n2)C1)N1CCN(c2ncc(C(F)(F)F)cn2)CC1` [Example 61, 5-(trifluoromethyl)-3-[[(1S,3S)-3-[4-[5-(trifluoromethyl)pyrimidin-2-yl]piperazine-1-carbonyl]cyclohexyl]amino]-1H-pyridazin-6-one]: the EC50 in test [1] was not below 10 µM. For the same compound, the 50% inhibitory concentration (IC50) at PARP7 is 0.00178 µM.

Turning to `O=C([C@@H]1CC[C@H](Nc2cc(C(F)(F)F)c(=O)[nH]n2)C1)N1CCN(c2ncc(C(F)(F)F)cn2)CC1` [Example 62, 5-(trifluoromethyl)-3-[[(1S,3R)-3-[4-[5-(trifluoromethyl)pyrimidin-2-yl]piperazine-1-carbonyl]cyclopentyl]amino]-1H-pyridazin-6-one], in test [1], the EC50 worked out at 2.2 µM. On PARP7, this compound had a 50% inhibitory concentration (IC50) of 0.00129 µM.

Regarding `O=C(C[C@@H]1CCN(c2cc(C(F)(F)F)c(=O)[nH]n2)C1)N1CCN(c2ncc(C(F)(F)F)cn2)CC1` [Example 67, 3-[(3S)-3-[2-oxo-2-[4-[5-(trifluoromethyl)pyrimidin-2-yl]piperazin-1-yl]ethyl]pyrrolidin-1-yl]-5-(trifluoromethyl)-1H-pyridazin-6-one], the half-maximal effective concentration (EC50) in test [1] turned out to be 2.27 µM. The compound also showed a concentration for half-maximal inhibition (IC50) against PARP7 of 0.000848 µM.

For `Cc1cc(CCCCC(=O)N2CCN(c3ncc(C(F)(F)F)cn3)CC2)n[nH]c1=O` [Example 68, 5-methyl-3-[5-oxo-5-[4-[5-(trifluoromethyl)pyrimidin-2-yl]piperazin-1-yl]pentyl]-1H-pyridazin-6-one], the concentration for a half-maximal effect (EC50) in test [1] was determined as 1.32 µM. The same compound gave a half-inhibitory concentration (IC50) at PARP7 of 0.00566 µM.

As for `O=C(CCCCc1n[nH]c(=O)c2c1CCCC2)N1CCN(c2ncc(C(F)(F)F)cn2)CC1` [Example 69, 4-[5-oxo-5-[4-[5-(trifluoromethyl)pyrimidin-2-yl]piperazin-1-yl]pentyl]-5,6,7,8-tetrahydro-2H-phthalazin-1-one], the EC50 in test [1] was found to be 0.16 µM. This compound had a half-maximal inhibitory concentration (IC50) against PARP7 of 0.000755 µM.

For `O=C(N1CCN(c2ncc(C(F)(F)F)cn2)CC1)C1(CCNc2cc(C(F)(F)F)c(=O)[nH]n2)CC1` [Example 70, 5-(trifluoromethyl)-3-[2-[1-[4-[5-(trifluoromethyl)pyrimidin-2-yl]piperazine-1-carbonyl]cyclopropyl]ethylamino]-1H-pyridazin-6-one], the 50% effective concentration (EC50) in test [1] was 0.319 µM. For the same compound, the IC50 against PARP7 came to 0.000372 µM.

Source of the values: patent US20230183216A1, “PYRIDIZIN-3(2H)-ONE DERIVATIVES” (Gilead Sciences, Inc., priority 2021, published 2023).
